Data taken from patent US12319664B2, “Herbicidally active 3-phenylisoxazoline-5-carboxamides of cyclopentenylcarboxylic acid derivatives” (Bayer Aktiengesellschaft, priority 2018, dated 2025).

Columns and labels:
ALOMY [1] = test: Pre-emergence herbicidal action against ALOMY; assay type: in vivo, Alopecurus myosuroides; settings: application rate 80 g/ha, scored visually after about 3 weeks vs untreated controls (100% = plants have died, 0% = like control plants)
How it was run: (§1)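 Activity was rated by eye as % relative to untreated pots about 3 weeks after a pre-emergence application of WP or EC formulations onto covering soil (aqueous, 0.5% additive, 600 l/ha), with plants held in the greenhouse.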

AVEFA [2] = test: Pre-emergence herbicidal action against AVEFA; assay type: in vivo, Avena fatua; settings: application rate 80 g/ha, scored visually after about 3 weeks vs untreated controls (100% = plants have died, 0% = like control plants)
How it was run: as §1

CYPES = test: Pre-emergence herbicidal action against CYPES; assay type: in vivo; settings: application rate 80 g/ha, scored visually after about 3 weeks vs untreated controls (100% = plants have died, 0% = like control plants)
Description: (§2) 1. Pre-emergence herbicidal action against harmful plants and crop plant compatibility Seeds of monocotyledonous and dicotyledonous weed plants and crop plants are placed in plastic or wood-fibre pots and covered with soil. The compounds of the invention, formulated in the form of wettable powders (WP) or as emulsion concentrates (EC), are then applied onto the surface of the covering soil as aqueous suspension or emulsion with addition of 0.5% additive at a water application rate of 600 l/ha (converted). After the treatment, the pots are placed in a greenhouse and kept under good growth conditions for the trial plants. After about 3 weeks, the effect of the preparations is scored visually in comparison with untreated controls as percentages. For example, 100% activity=the plants have died, 0% activity=like control plants.

ECHCG [3] = test: Pre-emergence herbicidal action against ECHCG; assay type: in vivo, Echinochloa crus-galli; settings: application rate 80 g/ha, scored visually after about 3 weeks vs untreated controls (100% = plants have died, 0% = like control plants)
How it was run: as §1

LOLRI [4] = test: Pre-emergence herbicidal action against LOLRI; assay type: in vivo, Lolium rigidum; settings: application rate 80 g/ha, scored visually after about 3 weeks vs untreated controls (100% = plants have died, 0% = like control plants)
How it was run: as §1

SETVI [5] = test: Pre-emergence herbicidal action against SETVI; assay type: in vivo, Setaria viridis; settings: application rate 80 g/ha, scored visually after about 3 weeks vs untreated controls (100% = plants have died, 0% = like control plants)
How it was run: as §1

AMARE [6] = test: Pre-emergence herbicidal action against AMARE; assay type: in vivo, Amaranthus retroflexus; settings: application rate 80 g/ha
How it was run: as §1

MATIN [7] = test: Pre-emergence herbicidal action against MATIN; assay type: in vivo, Matricaria inodora; settings: application rate 80 g/ha, scored visually after about 3 weeks vs untreated controls (100% = plants have died, 0% = like control plants)
Description: as §2, with “control plants. [table]” for “control plants.”

POLCO [8] = test: Pre-emergence herbicidal action against POLCO; assay type: in vivo, Polygonum convolvulus; settings: application rate 80 g/ha
How it was run: as §1

STEME [9] = test: Pre-emergence herbicidal action against STEME; assay type: in vivo, Stellaria media; settings: application rate 80 g/ha
How it was run: as §1

VIOTR [10] = test: Pre-emergence herbicidal action against VIOTR; assay type: in vivo, Viola tricolor; settings: application rate 80 g/ha
How it was run: as §1

LOLRI [11] = test: Post-emergence herbicidal action against LOLRI; assay type: in vivo, Lolium rigidum; settings: application rate 80 g/ha, rated visually after about 3 weeks
How it was run: (§3)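 Post-emergence spray, one-leaf stage; sandy loam, greenhouse; WP/EC in water + 0.5% additive, 600 l/ha; visual % damage vs untreated at ~3 wk (100% = dead).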

SETVI [12] = test: Post-emergence herbicidal action against SETVI; assay type: in vivo, Setaria viridis; settings: application rate 80 g/ha, rated visually after about 3 weeks
How it was run: as §3

POLCO [13] = test: Post-emergence herbicidal action against POLCO; assay type: in vivo, Polygonum convolvulus; settings: application rate 80 g/ha, rated visually about 3 weeks after treatment
How it was run: as §3

PHBPU [14] = test: Pre-emergence herbicidal action against PHBPU; assay type: in vivo, Pharbitis purpurea; settings: application rate 80 g/ha
Description: as §2, with “control plants. [table]” for “control plants.”

HORMU [15] = test: Pre-emergence herbicidal action against HORMU; assay type: in vivo, Hordeum murinum; settings: application rate 80 g/ha
How it was run: as §1

ALOMY [16] = test: Post-emergence herbicidal action against ALOMY; assay type: in vivo, Alopecurus myosuroides; settings: application rate 80 g/ha, rated visually after about 3 weeks
How it was run: as §3

AVEFA [17] = test: Post-emergence herbicidal action against AVEFA; assay type: in vivo, Avena fatua; settings: application rate 80 g/ha, rated visually after about 3 weeks
How it was run: as §3

ECHCG [18] = test: Post-emergence herbicidal action against ECHCG; assay type: in vivo, Echinochloa crus-galli; settings: application rate 80 g/ha, rated visually after about 3 weeks
How it was run: as §3

PHBPU [19] = test: Post-emergence herbicidal action against PHBPU; assay type: in vivo, Pharbitis purpurea; settings: application rate 80 g/ha, rated visually about 3 weeks after treatment
How it was run: as §3

STEME [20] = test: Post-emergence herbicidal action against STEME; assay type: in vivo, Stellaria media; settings: application rate 80 g/ha, rated visually about 3 weeks after treatment
How it was run: as §3

HORMU [21] = test: Post-emergence herbicidal action against HORMU; assay type: in vivo, Hordeum murinum; settings: application rate 80 g/ha
How it was run: as §3

ABUTH [22] = test: Pre-emergence herbicidal action against ABUTH; assay type: in vivo, Abutilon theophrasti; settings: application rate 80 g/ha, scored visually after about 3 weeks vs untreated controls (100% = plants have died, 0% = like control plants)
Description: as §2, with “control plants. [table]” for “control plants.”

VERPE [23] = test: Pre-emergence herbicidal action against VERPE; assay type: in vivo, Veronica persica; settings: application rate 80 g/ha
Description: as §2, with “control plants. [table]” for “control plants.”

ABUTH [24] = test: Post-emergence herbicidal action against ABUTH; assay type: in vivo, Abutilon theophrasti; settings: application rate 80 g/ha, rated visually about 3 weeks after treatment
How it was run: as §3

AMARE [25] = test: Post-emergence herbicidal action against AMARE; assay type: in vivo, Amaranthus retroflexus; settings: application rate 80 g/ha, rated visually about 3 weeks after treatment
How it was run: as §3

MATIN [26] = test: Post-emergence herbicidal action against MATIN; assay type: in vivo, Matricaria inodora; settings: application rate 80 g/ha, rated visually about 3 weeks after treatment
How it was run: as §3

VIOTR [27] = test: Post-emergence herbicidal action against VIOTR; assay type: in vivo, Viola tricolor; settings: application rate 80 g/ha, rated visually about 3 weeks after treatment
How it was run: as §3

VERPE [28] = test: Post-emergence herbicidal action against VERPE; assay type: in vivo, Veronica persica; settings: application rate 80 g/ha
How it was run: as §3

Structure (SMILES): CC1(C(=O)NC2C=CC(C(=O)NS(=O)(=O)C(F)(F)F)C2)CC(c2cccc(F)c2)=NO1 (mixture of isomers) [II-16]
- Herbicidal action against [%] ALOMY (ALOMY [1]): 100%
- Herbicidal action against [%] AVEFA (AVEFA [2]): 80%
- Herbicidal action against [%] CYPES (CYPES): 100%
- Herbicidal action against [%] ECHCG (ECHCG [3]): 100%
- Herbicidal action against [%] LOLRI (LOLRI [4]): 100%
- Herbicidal action against [%] SETVI (SETVI [5]): 80%
- Herbicidal action against [%] AMARE (AMARE [6]): 90%
- Herbicidal action against [%] MATIN (MATIN [7]): 80%
- Herbicidal action against [%] POLCO (POLCO [8]): 90%
- Herbicidal action against [%] STEME (STEME [9]): 100%
- Herbicidal action against [%] VIOTR (VIOTR [10]): 80%
- Herbicidal action against [%] LOLRI (LOLRI [11]): 80%
- Herbicidal action against [%] SETVI (SETVI [12]): 80%

Structure (SMILES): COC(=O)[C@H]1C=C[C@@H](NC(=O)C2(C)CC(c3cccc(F)c3)=NO2)C1 (stereo partly drawn) [Example I-003, methyl (1R,4S)-4-[[[3-(3-fluorophenyl)-5-methyl-4H-1,2-oxazol-5-yl]carbonyl]amino]cyclopent-2-ene-1-carboxylate]
- Herbicidal action against [%] CYPES (CYPES): 100%
- Herbicidal action against [%] POLCO (POLCO [8]): 80%
- Herbicidal action against [%] STEME (STEME [9]): 80%
- Herbicidal action against [%] VIOTR (VIOTR [10]): 100%
- Herbicidal action against [%] POLCO (POLCO [13]): 80%

Structure (SMILES): CCOC(=O)[C@@H]1C=C[C@H](NC(=O)C2(C)CC(c3cccc(F)c3)=NO2)C1 (stereo partly drawn) [Example I-006]
- Herbicidal action against [%] ALOMY (ALOMY [1]): 100%
- Herbicidal action against [%] AVEFA (AVEFA [2]): 90%
- Herbicidal action against [%] CYPES (CYPES): 100%
- Herbicidal action against [%] ECHCG (ECHCG [3]): 100%
- Herbicidal action against [%] LOLRI (LOLRI [4]): 100%
- Herbicidal action against [%] SETVI (SETVI [5]): 100%
- Herbicidal action against [%] AMARE (AMARE [6]): 100%
- Herbicidal action against [%] MATIN (MATIN [7]): 90%
- Herbicidal action against [%] PHBPU (PHBPU [14]): 90%
- Herbicidal action against [%] POLCO (POLCO [8]): 80%
- Herbicidal action against [%] STEME (STEME [9]): 100%
- Herbicidal action against [%] VIOTR (VIOTR [10]): 90%
- Herbicidal action against [%] HORMU (HORMU [15]): 90%
- Herbicidal action against [%] ALOMY (ALOMY [16]): 80%
- Herbicidal action against [%] AVEFA (AVEFA [17]): 80%
- Herbicidal action against [%] ECHCG (ECHCG [18]): 80%
- Herbicidal action against [%] LOLRI (LOLRI [11]): 80%
- Herbicidal action against [%] PHBPU (PHBPU [19]): 80%
- Herbicidal action against [%] STEME (STEME [20]): 80%
- Herbicidal action against [%] HORMU (HORMU [21]): 80%

Structure (SMILES): C=CC1(C(=O)NC2C=CC(C(=O)OCC)C2)CC(c2cc(F)cc(F)c2)=NO1 (stereo not drawn) [Example I-013]
- Herbicidal action against [%] ALOMY (ALOMY [1]): 100%
- Herbicidal action against [%] AVEFA (AVEFA [2]): 100%
- Herbicidal action against [%] ECHCG (ECHCG [3]): 100%
- Herbicidal action against [%] LOLRI (LOLRI [4]): 100%
- Herbicidal action against [%] SETVI (SETVI [5]): 100%
- Herbicidal action against [%] ABUTH (ABUTH [22]): 90%
- Herbicidal action against [%] AMARE (AMARE [6]): 100%
- Herbicidal action against [%] MATIN (MATIN [7]): 100%
- Herbicidal action against [%] PHBPU (PHBPU [14]): 90%
- Herbicidal action against [%] POLCO (POLCO [8]): 90%
- Herbicidal action against [%] STEME (STEME [9]): 100%
- Herbicidal action against [%] VIOTR (VIOTR [10]): 100%
- Herbicidal action against [%] VERPE (VERPE [23]): 90%
- Herbicidal action against [%] HORMU (HORMU [15]): 100%
- Herbicidal action against [%] ALOMY (ALOMY [16]): 80%
- Herbicidal action against [%] AVEFA (AVEFA [17]): 90%
- Herbicidal action against [%] ECHCG (ECHCG [18]): 80%
- Herbicidal action against [%] LOLRI (LOLRI [11]): 90%
- Herbicidal action against [%] SETVI (SETVI [12]): 90%
- Herbicidal action against [%] ABUTH (ABUTH [24]): 80%
- Herbicidal action against [%] AMARE (AMARE [25]): 80%
- Herbicidal action against [%] MATIN (MATIN [26]): 90%
- Herbicidal action against [%] PHBPU (PHBPU [19]): 80%
- Herbicidal action against [%] POLCO (POLCO [13]): 90%
- Herbicidal action against [%] STEME (STEME [20]): 80%
- Herbicidal action against [%] VIOTR (VIOTR [27]): 80%
- Herbicidal action against [%] VERPE (VERPE [28]): 80%
- Herbicidal action against [%] HORMU (HORMU [21]): 90%
